Measurements reported in ChEMBL document CHEMBL3885861, “Open TG-GATES”.

Species on record: Rattus norvegicus
Test: Open TG-GATES - Regimen: Single
Assay type: toxicity, organism-based, Sprague-Dawley
Parameters: regimen Single, gender Male, age 6 weeks
Settings: in vivo, po, route gavage; for APTT / Bas / Eos / Fbg / Hb / Ht / Lym / MCH / MCHC / MCV / Mono / Neu / PT / Plat / RBC / Ret / WBC: tissue Blood; for KIDNEY_L / KIDNEY_R / KIDNEY_TOTAL: tissue Kidney; for LIVER: tissue Liver
[1] = 30 mg/kg, 24 h, tissue Plasma, dose level Middle
[2] = 100 mg/kg, 3 h, dose level High
[3] = 100 mg/kg, 3 h, tissue Plasma, dose level High
[4] = 100 mg/kg, 6 h, dose level High
[5] = 100 mg/kg, 6 h, tissue Plasma, dose level High
[6] = 100 mg/kg, 9 h, dose level High
[7] = 100 mg/kg, 9 h, tissue Plasma, dose level High
[8] = 100 mg/kg, 24 h, dose level High
[9] = 100 mg/kg, 24 h, tissue Plasma, dose level High

CC(=O)N1CCN(c2ccc(OCC3COC(Cn4ccnc4)(c4ccc(Cl)cc4Cl)O3)cc2)CC1 (stereo unspecified) [KETOCONAZOLE]
TG [1]: 102.2 mg/dL | TP [1]: 5.5 g/dL | gamma-GTP [1]: 1.4 IU/L | TERMINAL_BW [2]: 205.8 g | APTT [2]: 21.1 s | Bas [2]: 0% | Eos [2]: 0.8% | Fbg [2]: 280.8 mg/dL | Hb [2]: 13 g/dL | Ht [2]: 38.6% | Lym [2]: 81.4% | MCH [2]: 21.1 pg | MCHC [2]: 33.5% | MCV [2]: 62.9 fL | Mono [2]: 1.8% | Neu [2]: 15.2% | PT [2]: 16.9 s | Plat [2]: 125.7 x10_4/uL | RBC [2]: 615.2 x10_4/ul | Ret [2]: 8.6% | WBC [2]: 103.8 x10_2/uL | KIDNEY_L [2]: 1 g | KIDNEY_R [2]: 1 g | KIDNEY_TOTAL [2]: 1.9 g | LIVER [2]: 9.5 g | ALP [3]: 1893.6 IU/L | AST [3]: 73.6 IU/L | BUN [3]: 11.6 mg/dL | CRE [3]: 0.1 mg/dL | Ca [3]: 10.8 mg/dL | Cl [3]: 104.6 meq/L | DBIL [3]: 0 mg/dL | GLC [3]: 190.8 mg/dL | IP [3]: 9.2 mg/dL | LDH [3]: 182.4 IU/L | Na [3]: 140.4 meq/L | PL [3]: 151.8 mg/dL | RALB [3]: 2.9 g/dL | TBIL [3]: 0.016 mg/dL | TC [3]: 85 mg/dL | TG [3]: 59.4 mg/dL | TP [3]: 5.3 g/dL | gamma-GTP [3]: 1 IU/L | TERMINAL_BW [4]: 197.9 g | APTT [4]: 21.5 s | Bas [4]: 0% | Eos [4]: 0.6% | Fbg [4]: 290.8 mg/dL | Hb [4]: 13.4 g/dL | Ht [4]: 39.8% | Lym [4]: 80.4% | MCH [4]: 21.4 pg | MCV [4]: 63.6 fL | Mono [4]: 2% | Neu [4]: 15% | PT [4]: 16.6 s | Plat [4]: 127.9 x10_4/uL | RBC [4]: 625.8 x10_4/ul | Ret [4]: 7.5% | WBC [4]: 69 x10_2/uL | KIDNEY_L [4]: 0.9 g | KIDNEY_R [4]: 0.9 g | KIDNEY_TOTAL [4]: 1.8 g | LIVER [4]: 8.7 g | ALP [5]: 1551.6 IU/L | AST [5]: 68.8 IU/L | BUN [5]: 8.8 mg/dL | CRE [5]: 0.2 mg/dL | Ca [5]: 10.9 mg/dL | Cl [5]: 105.2 meq/L | DBIL [5]: 0 mg/dL | GLC [5]: 191.2 mg/dL | IP [5]: 9.9 mg/dL | LDH [5]: 257.2 IU/L | Na [5]: 141.4 meq/L | PL [5]: 142.8 mg/dL | RALB [5]: 3 g/dL | TBIL [5]: 0.02 mg/dL | TC [5]: 74.2 mg/dL | TG [5]: 94.2 mg/dL | TP [5]: 5.4 g/dL | gamma-GTP [5]: 1 IU/L | TERMINAL_BW [6]: 199.2 g | APTT [6]: 20.8 s | Bas [6]: 0% | Eos [6]: 1% | Fbg [6]: 298 mg/dL | Ht [6]: 38.7% | Lym [6]: 80.6% | MCH [6]: 21.2 pg | MCV [6]: 62.9 fL | Mono [6]: 1.6% | Neu [6]: 15.8% | PT [6]: 16.9 s | Plat [6]: 124.7 x10_4/uL | RBC [6]: 615.4 x10_4/ul | Ret [6]: 8.1% | WBC [6]: 80.7 x10_2/uL | KIDNEY_L [6]: 0.9 g | KIDNEY_R [6]: 0.9 g | KIDNEY_TOTAL [6]: 1.8 g | LIVER [6]: 8.1 g | ALP [7]: 1393.4 IU/L | AST [7]: 63.2 IU/L | BUN [7]: 7.4 mg/dL | CRE [7]: 0.2 mg/dL | Ca [7]: 10.7 mg/dL | Cl [7]: 106 meq/L | DBIL [7]: 0 mg/dL | GLC [7]: 198 mg/dL | IP [7]: 9.3 mg/dL | LDH [7]: 179 IU/L | Na [7]: 142.2 meq/L | PL [7]: 137.4 mg/dL | RALB [7]: 2.9 g/dL | TBIL [7]: 0.02 mg/dL | TC [7]: 73.4 mg/dL | TG [7]: 55.2 mg/dL | TP [7]: 5.3 g/dL | gamma-GTP [7]: 1.2 IU/L | TERMINAL_BW [8]: 216.3 g | APTT [8]: 21.5 s | Bas [8]: 0% | Eos [8]: 0.4% | Fbg [8]: 304.2 mg/dL | Hb [8]: 13.3 g/dL | Ht [8]: 39.9% | Lym [8]: 74.8% | MCH [8]: 21.4 pg | MCHC [8]: 33.2% | MCV [8]: 64.4 fL | Mono [8]: 2% | Neu [8]: 21.4% | PT [8]: 16.4 s | Plat [8]: 127 x10_4/uL | RBC [8]: 621 x10_4/ul | Ret [8]: 8% | WBC [8]: 71.7 x10_2/uL | KIDNEY_L [8]: 1 g | KIDNEY_R [8]: 1 g | KIDNEY_TOTAL [8]: 2 g | LIVER [8]: 11 g | ALP [9]: 1882.6 IU/L | ALT [9]: 55.8 IU/L | AST [9]: 89.8 IU/L | BUN [9]: 15.8 mg/dL | CRE [9]: 0.2 mg/dL | Ca [9]: 10.7 mg/dL | Cl [9]: 105.4 meq/L | DBIL [9]: 0 mg/dL | GLC [9]: 180.4 mg/dL | IP [9]: 8.4 mg/dL | LDH [9]: 226.4 IU/L | Na [9]: 142.2 meq/L | PL [9]: 147 mg/dL | RALB [9]: 2.9 g/dL | TBIL [9]: 0.004 mg/dL | TC [9]: 79.4 mg/dL | TG [9]: 88.6 mg/dL | TP [9]: 5.4 g/dL | gamma-GTP [9]: 1 IU/L
